This note sets out measurements from US5712297A, “Piperdine compounds and their preparation and use” (Novo Nordisk A/S, priority 1989, dated 1998).

Where a name gives a salt, the structure may show the parent alone.

In this test the target is muscarinic acetylcholine receptors. The experiment in a line: Inhibition of specific binding of 3H-Oxotremorine-M (3H-Oxo). On the set-up: species or system rat (male Wistar. Particulars: rat cortex; 3H-Oxotremorine 1.0 nM; 20 mM Hepes pH 7.4; 30 min at 25° C. How it is done:
The pharmacological properties of the compounds of the present invention (Formula I) can be illustrated by determining their capability to inhibit the specific binding of ^3 H-Oxotremorine-M (^3 H-Oxo).
^3 H-Oxo labels muscarinic receptors in the CNS (with a preference for agonist domaines of the receptors). Three different sites are labelled by 3H-Oxo. These sites have affinity of 1.0, 20 and 3000 nM, respectively. Using the present experimental conditions only the high and medium affinity sites are determined. The inhibitory effects of compounds on ^3 H-Oxo binding reflects the affinity for muscarinic acetylcholine receptors.
All preparations are performed at 0°-4° C. unless otherwise indicated. Fresh cortex (0.1-1 g) from male Wistar rats (150-250 g) is homogenized for 5-10 s in 10 ml 20 mM Hepes pH: 7.4, with an Ultra-Turrax homogenizer. The homogenizer is rinsed with 10 ml of buffer and the combined suspension centrifuged for 15 min at 40,000×g. The pellet is washed three times with buffer. In each step the pellet is homogenized as before in 2×10 ml of buffer and centrifuged for 10 min at 40,000×g. The final pellet is homogenized in 20 mM Hepes pH: 7.4 (100 ml per g of original tissue) and used for binding assay. Aliquots of 0.5 ml is added 25 μl of test solution and 25 μl of ^3 H-Oxotremorine (1.0 nM, final concentration) mixed and incubated for 30 min at 25° C. Non-specific binding is determined in triplicate using Arecoline (1 μg/ml, final concentration) as the test substance. After incubation samples are added 5 ml of ice-cold buffer and poured directly onto Whatman GF/C glass fiber filters under suction and immediately washed 2 times with 5 ml of ice-cold buffer. The amount of radioactivity on the filters are determined by conventional liquid scintillation counting. Specific binding is total binding minus non-specific binding. Test substances are dissolved in 10 ml water (if necessary heated on a steam-bath for less than 5 minutes) at a concentration of 2.2 mg/ml. 25-75% inhibition of specific binding must be obtained before calculation of IC50.
The test value will be given as IC50 (the concentration (ng/ml) of the test substance which inhibits the specific binding of ^3 H-Oxo by 50%). [formula] where Co is specific binding in control assays and Cx is the specific binding in the test assay. (The calculations assume normal mass-action kinetics).
In the case of `CC#CCCOc1nsnc1C1=CCCN(C)C1.O=C(O)C(=O)O` [Compound 22, 3-(4-(3-pentynyloxy)-1,2,5-thiadiazol-3-yl)-1,2,5,6-tetrahydro-1-methylpyridine oxalate], the “Inhibition in vitro OXO BINDING (IC50: concentration which inhibits the specific binding of 3H-Oxo by 50%)” value was determined as 0.4 ng/mL.
With `CC(C)CCOc1nsnc1C1=CCCN(C)C1.O=C(O)C(=O)O` [Compound 8, 1,2,5,6-tetrahydro-3-(4-isopentyloxy-1,2,5-thiadiazol-3-yl)-1-methylpyridine oxalate], the “Inhibition in vitro OXO BINDING (IC50: concentration which inhibits the specific binding of 3H-Oxo by 50%)” value was found to be 1.9 ng/mL.
For the compound `CCC/C=C/COc1nsnc1C1=CCCN(C)C1.O=C(O)C(=O)O` [Compound 35, trans-3-(4-(2-hexenyloxy)-1,2,5-thiadiazol-3-yl)-1,2,5,6-tetrahydro-1-methylpyridine oxalate], the “Inhibition in vitro OXO BINDING (IC50: concentration which inhibits the specific binding of 3H-Oxo by 50%)” value is 0.6 ng/mL.
With `CC(C)Oc1nsnc1C1=CCCN(C)C1` [Compound 5, 1,2,5,6-tetrahydro-3-(4-isopropoxy-1,2,5-thiadiazol-3-yl)-1-methylpyridineoxalate], the “Inhibition in vitro OXO BINDING (IC50: concentration which inhibits the specific binding of 3H-Oxo by 50%)” value turned out to be 3.5 ng/mL.
The figure for `CCCCOCCOc1nsnc1C1=CCCN(C)C1.O=C(O)C(=O)O` [Compound 41, 3-(4-(2-butoxyethoxy)-1,2,5-thiadiazol-3-yl)-1,2,5,6-tetrahydro-1-methylpyridine oxalate] is 1.3 ng/mL; for `CCOCCOc1nsnc1C1=CCCN(C)C1.O=C(O)C(=O)O` [Compound 40, 3-(4-(2-ethoxyethoxy)-1,2,5-thiadiazol-3-yl)-1,2,5,6-tetrahydro-1-methylpyridine oxalate] it is 3.7 ng/mL; for `C=CCCCOc1nsnc1C1=CCCN(C)C1.O=C(O)C(=O)O` [Compound 23, 3-(4-(4-pentenyloxy)-1,2,5-thiadiazol-3-yl)-1,2,5,6-tetrahydro-1-methylpyridine oxalate] it is 0.3 ng/mL.
The figure for `CSc1nsnc1C1=CCCN(C)C1` [Compound 49, 3-(4-methylthio-1,2,5-thiadiazol-3-yl)-1,2,5,6-tetrahydro-1-methylpyridineoxalate] is 0.7 ng/mL; for `CN1CCC=C(c2nsnc2CC2CC2)C1` [Compound 62, 3-(4-cyclopropylmethyl-1,2,5-thiadiazol-3-yl)-1,2,5,6-tetrahydro-1-methylpyridinium oxalate] it is 32 ng/mL; for `CCN1CCC=C(c2nsnc2Cl)C1.O=C(O)C(=O)O` [Compound 19, 3-(4-chloro-1,2,5-thiadiazol-3-yl)-1-ethyl-1,2,5,6-tetrahydropyridine oxalate] it is 92 ng/mL.
The figure for `C=CCCOc1nsnc1C1=CCCN(C)C1.O=C(O)C(=O)O` [Compound 11, 3-(4-(3-butenyloxy)-1,2,5-thiadiazol-3-yl)-1,2,5,6-tetrahydro-1-methylpyridine oxalate] is 0.9 ng/mL; for `CC=CCCCOc1nsnc1C1=CCCN(C)C1.O=C(O)C(=O)O` [Compound 29, 3-(4-(4-hexenyloxy)-1,2,5-thiadiazol-3-yl)-1,2,5,6-tetrahydro-1-methylpyridine oxalate] it is 0.6 ng/mL; for `CCCSc1nsnc1C1=CCCN(C)C1` [Compound 47, 3-(4-propylthio-1,2,5-thiadiazol-3-yl)-1,2,5,6-tetrahydro-1-methylpyridineoxalate] it is 0.3 ng/mL.
For the compound `CCCCCOc1nsnc1C1=CCCN(C)C1.O=C(O)C(=O)O` [Compound 6, 1,2,5,6-tetrahydro-1-methyl-3-(4-pentyloxy-1,2,5-thiadiazol-3-yl)pyridine oxalate], the “Inhibition in vitro OXO BINDING (IC50: concentration which inhibits the specific binding of 3H-Oxo by 50%)” value worked out at 1.9 ng/mL.
In the case of `CCSc1nsnc1C1=CCCN(C)C1.O=C(O)C(=O)O` [Compound 65, 3-(4-ethylthio-1,2,5-thiadiazol-3-yl)-1,2,5,6-tetrahydro-1-methylpyridine oxalate], the “Inhibition in vitro OXO BINDING (IC50: concentration which inhibits the specific binding of 3H-Oxo by 50%)” value worked out at 0.6 ng/mL.
The figure for `CC(C)Cc1nsnc1C1=CCCN(C)C1` [Compound 61, 3-(4-isobutyl-1,2,5-thiadiazol-3-yl)-1,2,5,6-tetrahydro-1-methylpyridinium oxalate] is 50 ng/mL; for `CCCCCCSc1nsnc1C1=CCCN(C)C1.O=C(O)C(=O)O` [Compound 67, 3-(4-hexylthio-1,2,5-thiadiazol-3-yl)-1,2,5,6-tetrahydro-1-methylpyridine oxalate] it is 1.6 ng/mL; for `CC(=O)Nc1nonc1C1=CCCN(C)C1` [Compound 51, 3-(4-acetylamino-1,2,5-oxadiazol-3-yl)-1,2,5,6-tetrahydro-1-methylpyridineoxalate] it is 300 ng/mL.
The figure for `CCCCCCNc1nsnc1C1=CCCN(C)C1` [Compound 46, 3-(4-hexylamino-1,2,5-thiadiazol-3-yl)-1,2,5,6-tetrahydro-1-methylpyridineoxalate] is 18 ng/mL.
With `CCC#CCCOc1nonc1C1=CCCN(C)C1.O=C(O)C(=O)O` [Compound 56, 3-(4-(3-hexynyloxy)-1,2,5-oxadiazol-3-yl)-1,2,5,6-tetrahydro-1-methylpyridine oxalate], the “Inhibition in vitro OXO BINDING (IC50: concentration which inhibits the specific binding of 3H-Oxo by 50%)” value worked out at 2.1 ng/mL.
The figure for `CCCCCCCCSc1nsnc1C1=CCCN(C)C1.O=C(O)C(=O)O` [Compound 64, 3-(4-octylthio-1,2,5-thiadiazol-3-yl)-1,2,5,6-tetrahydro-1-methylpyridine oxalate] is 58 ng/mL.
The figure for `CCC#CCCOc1nsnc1C1=CCCN(C)C1.O=C(O)C(=O)O` [Compound 26, 3-(4-(3-hexynyloxy) -1,2,5-thiadiazol-3-yl)-1,2,5,6-tetrahydro-1-methylpyridine oxalate] is 0.4 ng/mL; for `CN1CCC=C(c2cnon2)C1.O=C(O)C(=O)O` [Compound 53, 3-(1,2,5-oxadiazol-3-yl)-1,2,5,6-tetrahydro-1-methylpyridine oxalate] it is 1.2 ng/mL.
As to `CCCCOc1nsnc1C1=CCCNC1.O=C(O)C(=O)O` [Compound 18, 3-(4-butoxy-1,2,5-thiadiazol-3-yl)-1,2,5,6-tetrahydropyridine oxalate], the “Inhibition in vitro OXO BINDING (IC50: concentration which inhibits the specific binding of 3H-Oxo by 50%)” value was determined as 3.6 ng/mL.
The figure for `CCOc1nsnc1C1=CCCN(CC)C1.O=C(O)C(=O)O` [Compound 20, 3-(4-ethoxy-1,2,5-thiadiazol-3-yl)-1-ethyl-1,2,5,6-tetrahydropyridine oxalate] is 5.9 ng/mL.
